In PubChem BioAssay (NCI):
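96-well plates; 48 h exposure; 5 concentrations. Endpoints by linear interpolation between flanking doses. Not reached: highest tested concentration assigned. GI50 = concentration required for 50% inhibition of growth. Definition used: TGI = concentration required for complete inhibition of growth.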

What was measured:
Experiment in all cases: NCI tumour cell line growth inhibition, 48 h
HCT-116 colon = tested on: HCT-116 colon
HT29 colon = tested on: HT29 colon
NCI-H226 lung = tested on: NCI-H226 lung
OVCAR-8 ovarian = tested on: OVCAR-8 ovarian
SK-OV-3 ovarian = tested on: SK-OV-3 ovarian
SN12C renal = tested on: SN12C renal
SNB-75 CNS = tested on: SNB-75 CNS
SW-620 colon = tested on: SW-620 colon
TK-10 renal = tested on: TK-10 renal
U251 CNS = tested on: U251 CNS

SMILES	GI50 (HCT-116 colon) [µM]	GI50 (HT29 colon) [µM]	TGI (HT29 colon) [µM]	GI50 (NCI-H226 lung) [µM]	TGI (NCI-H226 lung) [µM]	GI50 (OVCAR-8 ovarian) [µM]	TGI (OVCAR-8 ovarian) [µM]	GI50 (SK-OV-3 ovarian) [µM]	TGI (SK-OV-3 ovarian) [µM]	GI50 (SN12C renal) [µM]	TGI (SN12C renal) [µM]	GI50 (SNB-75 CNS) [µM]	TGI (SNB-75 CNS) [µM]	GI50 (SW-620 colon) [µM]	TGI (SW-620 colon) [µM]	GI50 (TK-10 renal) [µM]	TGI (TK-10 renal) [µM]	GI50 (U251 CNS) [µM]	TGI (U251 CNS) [µM]	TGI (HCT-116 colon) [µM]
NC(=S)c1c(N)n(C2OC(CO)C(O)C2O)c2ncnc(N)c12 (stereo unspecified)	0.211	0.147	> 40.9	0.695	16	0.232	0.863	0.388	> 100	0.208	> 100	0.885	4.17	0.177	0.836	0.297	3.56	0.496	> 100	
N#CC1c2ccccc2C=CN1C(=O)N(c1ccccc1)c1ccccc1 (stereo unspecified)	2.05	3.56	11.5	3.76	15.2	13.3	54.1	16.5	31.3	3	10.8	6.3	21	2.27	5.3	1.89	3.58	6.59	19.3	4.35
COc1ccc(/C=C/C(=O)c2sc(-n3nc(-c4ccccc4)cc3-c3ccccc3)nc2C)cc1	> 100		> 100	> 100	> 100	> 100	> 100	> 100	> 100		> 100	56.1	> 100	> 100	> 100	> 100	> 100		> 100	> 100
COc1cc(-c2nn(-c3cccc(NC(=O)c4ccc(Cl)c(C(F)(F)F)c4)c3)cc2-c2ccncc2)ccc1Cl	2.04	3.33	> 26.1	7.83	> 32.5	3.35	> 32.5	7.53	> 32.5	7.15	> 32.5	1.07	13.2	2.87	> 32.5	12.9	> 32.5	2.39	> 32.5	> 32.5
C=CC(=O)N1CC2(CC(n3nc(-c4ccc5c(cnn5C)c4)c(-c4c(Cl)c(C)cc5[nH]ncc45)c3C)C2)C1	1.83	3.62	29.5	2.63	8.75	2.13	4.84	5.17	18.2	3.08	12.1	2.57	11.9	3.23	10.3	3.18	12.8	1.89	4.07	3.74
Cc1cc(N2CCN(C)CC2)n2nc(-c3ccc(Cl)cc3)nc2n1			> 100		> 100		> 100		> 100		> 100		> 100		> 100		> 100		> 100	> 100
CCCCCCC[CH2][Sn]1([CH2]CCCCCCC)[O]C(=O)c2cccnc2[O]1	> 100	> 100	> 100	> 100	> 100	> 100	> 100	> 100	> 100	> 100	> 100	> 100	> 100	> 100	> 100	> 100	> 100	> 100	> 100	> 100
